Experiment [1] concerns the target T1, hM4 receptors (Homo sapiens, UniProt P08173).
T1 construct: expressed in transfected cells; host or cells: CHO cells
T1 sequence (P08173 1-479): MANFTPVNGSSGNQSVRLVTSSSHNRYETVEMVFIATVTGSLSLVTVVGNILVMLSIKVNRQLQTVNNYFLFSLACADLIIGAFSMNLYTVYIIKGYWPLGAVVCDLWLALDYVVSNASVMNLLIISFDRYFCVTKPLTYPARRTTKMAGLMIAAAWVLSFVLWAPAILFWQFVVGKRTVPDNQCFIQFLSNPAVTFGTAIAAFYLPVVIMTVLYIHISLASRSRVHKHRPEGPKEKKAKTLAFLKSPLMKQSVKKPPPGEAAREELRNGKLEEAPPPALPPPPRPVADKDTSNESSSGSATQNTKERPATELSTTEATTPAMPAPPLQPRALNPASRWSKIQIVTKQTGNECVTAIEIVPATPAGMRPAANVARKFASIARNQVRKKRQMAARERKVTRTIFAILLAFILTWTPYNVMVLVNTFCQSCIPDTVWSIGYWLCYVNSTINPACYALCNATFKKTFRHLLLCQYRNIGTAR
In words: Human M4 PAM PERK assay (CHO cells, TR-FRET, with EC20 acetylcholine). The class given is cell-based. In short, it runs like this: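 CHO cells expressing human or rat M4, serum-starved 4 h, then given compound (10-point, 10 μM top, ½-log) with EC20 acetylcholine (10 nM final) for 5 min at 37 °C. Lysates assayed for phospho-ERK by TR-FRET after 2 h detection at RT.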

Experiment [2] deals with amphetamine-evoked hyperlocomotion. Description: Amphetamine-evoked hyperlocomotion in rats (open field). In kind it is in vivo, rat. As to conditions: Sprague Dawley rats, 0.5 mg/kg amphetamine s.c., distance traveled in the 60 min after AMP. How it is done: Compounds may be tested for ability to impact behavior activity of rats according to the following procedures. Animals: Adult male, Sprague Dawley rats (Envigo, Indianapolis, IN, USA) are housed in a colony maintained at 23° C. with 12 h light/dark cycles (lights on at 0600 hours). All animals weigh 290-330 g at the beginning of the study and are equally divided into 5 groups (n=8 per group) and received one of the treatment conditions listed below. Behavioral Procedures: Studies are conducted in MedAssociates open field chambers (27.3 cm×27.3 cm×20.3 cm, MedAssociates, St. Albans, VT) in which movement is automatically tracked and recorded by 16 beam arrays. The administration pretreatment of the test article is determined to coincide with Tmax at the time of the amphetamine-evoked session with optimal route of administration. All groups are subcutaneously treated with 0.5 mg/kg amphetamine (AMP). The test article is tested in three dose groups with a half-log increase between doses. Risperidone (0.55 mg/kg, 30 minutes, s.c.) may be used as a positive control and is administered to group 5. To determine the role of test article on AMP-evoked hyperlocomotion, rats are placed in the open area and allowed to habituate for 30 min before being s.c. dosed with 0.5 mg/kg AMP. Locomotor data (distance traveled) is recorded as 5-minute bins throughout the 90-minute session. The dose of AMP is chosen based on the selective increase in locomotor behavior relative to stereotypes. The dose of risperidone is chosen that produced reliable effects and served as a positive control. Statistical Analysis: Spontaneous locomotion (prior to AMP administration) is calculated as the total distance traveled during the first 30 minutes of the experimental session. AMP-evoked responses are calculated as the total distance traveled during the last 60 minutes of the experimental session which commenced immediately after AMP administration. Locomotor data may be analyzed by a one-way ANOVA. When there is a significant overall ANOVA, post hoc comparisons may be made by Dunnett's test with statistical significance determined as p<0.05. […] Behavioral Procedures: Studies were conducted in MedAssociates open field chambers (27.3 cm×27.3 cm×20.3 cm, MedAssociates, St. Albans, VT) in which movement was automatically tracked and recorded by 16 beam arrays. Administration pretreatment of the test article was determined to coincide with Tmax at the time of the amphetamine-evoked session with optimal route of administration. […] Locomotor data (distance traveled) was recorded as 5-minute bins throughout the 90-minute session. […] Statistical Analysis: Spontaneous locomotion (prior to AMP administration) was calculated as the total distance traveled during the first 30 minutes of the experimental session. […]

Structures are written as SMILES.

The compound `Cc1cc(=O)n(C)c2c1CN(C(=O)CC1CN(c3cc(F)cc(C4CC4)c3)C1)C2` [Compound I-4] returned an EC50 in experiment [1] of 50 to 200 nM. Further, in experiment [2], the “Dose Amount of Compound at which rats displayed a reduction in amphetamine-evoked hyperlocomotion activity” value was 10 mg/kg.

Turning to `Cc1cc(=O)n(C)c2c1CN(C(=O)CC1CN(c3cccc(F)c3F)C1)C2` [Compound I-14], in experiment [1], the EC50 was in the range of 50 to 200 nM. The “Dose Amount of Compound at which rats displayed a reduction in amphetamine-evoked hyperlocomotion activity” value in experiment [2] worked out at 32 mg/kg.

In experiment [1], `Cc1c2c(n(C)c(=O)c1C)CN(C(=O)CC1CN(c3ccnc(C(F)(F)F)c3)C1)C2` [Compound I-42, 1,3,4-Trimethyl-6-(2-(1-(2-(trifluoromethyl)pyridin-4-yl)azetidin-3-yl)acetyl)-1,5,6,7-tetrahydro-2H-pyrrolo[3,4-b]pyridin-2-one] came in with an EC50 of less than 50 nM. In experiment [2], the “Dose Amount of Compound at which rats displayed a reduction in amphetamine-evoked hyperlocomotion activity” value amounted to 32 mg/kg.

The compound `Cc1c2c(n(C)c(=O)c1F)CN(C(=O)CC1CN(c3ccc(C4CC4)c(F)c3)C1)C2` [Compound I-88] registered an EC50 in experiment [1] of less than 50 nM. The “Dose Amount of Compound at which rats displayed a reduction in amphetamine-evoked hyperlocomotion activity” value in experiment [2] was found to be 10 mg/kg.

In general, EC50 refers to the concentration giving half of the maximal effect. Higher therefore signals a less potent agent.
